# Measured values: ChEMBL document CHEMBL5214905 (J Med Chem, 2021)
# Target: T1, Tryptophan 2,3-dioxygenase (Homo sapiens, UniProt P48775)
# Conditions: not given
# T1 sequence (P48775 whole entry): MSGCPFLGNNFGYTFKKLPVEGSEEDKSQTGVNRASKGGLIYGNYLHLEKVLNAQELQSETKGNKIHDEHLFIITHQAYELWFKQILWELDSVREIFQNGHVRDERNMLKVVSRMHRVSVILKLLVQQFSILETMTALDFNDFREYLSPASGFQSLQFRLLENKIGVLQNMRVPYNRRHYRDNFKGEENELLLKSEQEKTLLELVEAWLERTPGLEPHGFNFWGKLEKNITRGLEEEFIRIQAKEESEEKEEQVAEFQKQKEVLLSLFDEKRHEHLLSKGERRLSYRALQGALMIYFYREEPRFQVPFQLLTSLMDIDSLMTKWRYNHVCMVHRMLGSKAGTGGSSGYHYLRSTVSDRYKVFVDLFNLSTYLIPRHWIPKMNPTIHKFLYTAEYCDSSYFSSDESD
row,IC50 [µM],Compound
1,12.6,COC(=O)c1cc(NC[C@@H]2CCCC[C@H]2O)c2cn[nH]c2c1
2,0.86,Brc1cc(NCC2CCCCC2)c2cn[nH]c2c1
3,0.36,N[C@@H]1CCCC[C@H]1CNc1cc(Br)cc2[nH]ncc12
4,0.12,OC1CCCCC1CNc1cc(Br)cc2[nH]ncc12 (stereo not given)
5,1.85,Oc1ccc(CNc2cc(Br)cc3[nH]ncc23)cc1
6,0.45,ON=C1CCC(CNc2cc(Br)cc3[nH]ncc23)CC1 (stereo not given)

# The next lines start with the compound.
row,Compound,IC50 [µM]
1,O=C(CNc1cc(Br)cc2[nH]ncc12)c1ccc(O)cc1,148
2,Nc1cc(NC[C@@H]2CCCC[C@H]2O)c2cn[nH]c2c1,> 300
3,O[C@@H]1CCCC[C@H]1CNc1c(Br)cc(Br)c2[nH]ncc12,> 300
4,Brc1cc(NCC2CCNC2)c2cn[nH]c2c1 (stereo not given),10.4
5,CC(=O)O[C@@H]1CCCC[C@H]1CNc1cc(Br)cc2[nH]ncc12,0.19
6,O[C@@H]1CCCC[C@H]1CNc1cc(Cl)cc2cn[nH]c12,84.2
7,OCC(Nc1cc(Br)cc2[nH]ncc12)c1cccc(Cl)c1 (stereo not given),2.04
8,CC(C)(C)OC(=O)N1CCC(CNc2cc(Br)cc3[nH]ncc23)C1 (stereo not given),1.36
9,Cc1cc(NC[C@@H]2CCCC[C@H]2O)c2cn[nH]c2c1,0.41
10,O[C@@H]1CCCC[C@H]1CNc1cc(Br)cc2cn[nH]c12,39.2
11,O[C@@H]1CCCC[C@H]1CNc1cc(C(F)(F)F)cc2[nH]ncc12,0.4
12,Brc1cc(NC[C@H]2CCCN2)c2cn[nH]c2c1,7.45
13,Brc1cc(NC[C@@H]2CCCCN2)c2cn[nH]c2c1,6.06

# Target: T2, Indoleamine 2,3-dioxygenase 1 (Homo sapiens, UniProt P14902)
# T2 sequence (P14902 whole entry): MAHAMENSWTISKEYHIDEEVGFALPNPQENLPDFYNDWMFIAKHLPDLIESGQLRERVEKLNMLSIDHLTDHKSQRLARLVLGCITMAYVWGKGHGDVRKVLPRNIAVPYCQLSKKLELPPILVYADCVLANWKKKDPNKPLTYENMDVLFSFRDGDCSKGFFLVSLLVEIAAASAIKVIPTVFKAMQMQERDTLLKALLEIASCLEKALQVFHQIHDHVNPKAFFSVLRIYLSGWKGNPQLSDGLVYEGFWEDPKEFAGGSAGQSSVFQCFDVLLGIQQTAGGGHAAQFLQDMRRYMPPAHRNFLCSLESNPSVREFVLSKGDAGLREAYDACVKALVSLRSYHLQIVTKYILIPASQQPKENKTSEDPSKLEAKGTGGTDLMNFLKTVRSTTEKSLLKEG
# Test: Binding affinity to human IDO1 assessed as inhibition constant by Cornhish-Bowden method
# Conditions: not given
row,Ki [µM],Compound
1,2.98,Oc1ccc(CNc2cc(Br)cc3[nH]ncc23)cc1

# Test system: not listed separately
# Test: Toxicity in MPTP induced C57BL/6J mouse neurodegenerative model assessed as no change in liver weight treated with MPTP for 7 days followed by compound administration at 50 mg/kg, po measured upto 32 days
# Type: organism-based
# Conditions: in vivo, 768 h, time < 32 day
row,Compound,Activity
1,N[C@@H](CO)C(=O)NNCc1ccc(O)c(O)c1O.N[C@@H](Cc1ccc(O)c(O)c1)C(=O)O,Non-Toxic

# Test system: not listed separately
# Test: Toxicity in MPTP induced C57BL/6J mouse neurodegenerative model assessed as no change in spleen weight treated with MPTP for 7 days followed by compound administration at 50 mg/kg, po measured upto 32 days
# Type: organism-based
# Conditions: in vivo, 768 h, time < 32 day
row,Compound,Activity
1,N[C@@H](CO)C(=O)NNCc1ccc(O)c(O)c1O.N[C@@H](Cc1ccc(O)c(O)c1)C(=O)O,Non-Toxic

# Target: T2, Indoleamine 2,3-dioxygenase 1
# Test: Inhibition of human IDO1
# Conditions: not given
row,IC50 [µM],Compound
1,0.078,NC(=O)Nc1ccc(-c2c[nH]c3cc(F)ccc23)cc1
2,0.029,O[C@H](c1cc(Cl)cc2cncn12)C1CCCCC1
3,0.26,CC1(C)CN(c2cc(Br)cc3[nH]ncc23)CCN1S(C)(=O)=O

# Target: T1, Tryptophan 2,3-dioxygenase
# Test: Binding affinity to human TDO assessed as inhibition constant by Cornhish-Bowden method
# Conditions: not given
row,Ki [µM],Compound
1,0.39,Oc1ccc(CNc2cc(Br)cc3[nH]ncc23)cc1

# Test system: not listed separately
# Test: Toxicity in MPTP induced C57BL/6J mouse neurodegenerative model assessed as no change in lung weight treated with MPTP for 7 days followed by compound administration at 50 mg/kg, po measured upto 32 days
# Type: organism-based
# Conditions: in vivo, 768 h, time < 32 day
row,Compound,Activity
1,N[C@@H](CO)C(=O)NNCc1ccc(O)c(O)c1O.N[C@@H](Cc1ccc(O)c(O)c1)C(=O)O,Non-Toxic

# Target: T1, Tryptophan 2,3-dioxygenase
# Test: Inhibition of human TDO
# Conditions: not given
row,IC50 [µM],Compound
1,0.45,CC1(C)CN(c2cc(Br)cc3[nH]ncc23)CCN1S(C)(=O)=O
2,> 20,C[C@@H](NC(=O)c1ccc(F)cc1)c1ccc2c(c1)CCN2C(=O)C1CCOCC1 [LY-3381916]

# The next lines start with the compound.
row,Compound,IC50 [µM]
1,NC(=O)Nc1ccc(-c2c[nH]c3cc(F)ccc23)cc1,0.049
2,O[C@H](c1cc(Cl)cc2cncn12)C1CCCCC1,0.0096

# Test system: not listed separately
# Test: Toxicity in MPTP induced C57BL/6J mouse neurodegenerative model assessed as no change in kidney weight treated with MPTP for 7 days followed by compound administration at 50 mg/kg, po measured upto 32 days
# Type: organism-based
# Conditions: in vivo, 768 h, time < 32 day
row,Compound,Activity
1,N[C@@H](CO)C(=O)NNCc1ccc(O)c(O)c1O.N[C@@H](Cc1ccc(O)c(O)c1)C(=O)O,Non-Toxic

# Target: T1, Tryptophan 2,3-dioxygenase
# Test: Inhibition of human TDO by Cornhish-Bowden method
# Conditions: not given
row,IC50 [µM],Compound
1,2.04,Oc1ccc(CNc2cc(Br)cc3[nH]ncc23)cc1

# Target: T2, Indoleamine 2,3-dioxygenase 1
# Test: Inhibition of human IDO1 (12 to 403 aa) expressed in Escherichia coli Transetta (DE3) by nanodrop 2000c spectrophotometric analysis
# Conditions: not given
row,IC50 [µM],Compound
1,> 300,COC(=O)c1cc(NC[C@@H]2CCCC[C@H]2O)c2cn[nH]c2c1
2,1.09,Brc1cc(NCC2CCCCC2)c2cn[nH]c2c1
3,0.7,N[C@@H]1CCCC[C@H]1CNc1cc(Br)cc2[nH]ncc12
4,4.12,OC1CCCCC1CNc1cc(Br)cc2[nH]ncc12 (stereo not given)
5,5.64,Oc1ccc(CNc2cc(Br)cc3[nH]ncc23)cc1
6,1.61,ON=C1CCC(CNc2cc(Br)cc3[nH]ncc23)CC1 (stereo not given)

# Continued, compound first:
row,Compound,IC50 [µM]
1,O=C(CNc1cc(Br)cc2[nH]ncc12)c1ccc(O)cc1,137
2,Nc1cc(NC[C@@H]2CCCC[C@H]2O)c2cn[nH]c2c1,> 300
3,O[C@@H]1CCCC[C@H]1CNc1c(Br)cc(Br)c2[nH]ncc12,> 300
4,Brc1cc(NCC2CCNC2)c2cn[nH]c2c1 (stereo not given),105
5,CC(=O)O[C@@H]1CCCC[C@H]1CNc1cc(Br)cc2[nH]ncc12,5.78
6,O[C@@H]1CCCC[C@H]1CNc1cc(Cl)cc2cn[nH]c12,178
7,OCC(Nc1cc(Br)cc2[nH]ncc12)c1cccc(Cl)c1 (stereo not given),18.3
8,CC(C)(C)OC(=O)N1CCC(CNc2cc(Br)cc3[nH]ncc23)C1 (stereo not given),9.02
9,Cc1cc(NC[C@@H]2CCCC[C@H]2O)c2cn[nH]c2c1,3.17
10,O[C@@H]1CCCC[C@H]1CNc1cc(Br)cc2cn[nH]c12,66
11,O[C@@H]1CCCC[C@H]1CNc1cc(C(F)(F)F)cc2[nH]ncc12,3.66
12,Brc1cc(NC[C@H]2CCCN2)c2cn[nH]c2c1,56.5
13,Brc1cc(NC[C@@H]2CCCCN2)c2cn[nH]c2c1,13.8

# Test system: not listed separately
# Test: Toxicity in MPTP induced C57BL/6J mouse neurodegenerative model assessed as no change in body weight treated with MPTP for 7 days followed by compound administration at 50 mg/kg, po measured upto 32 days
# Type: organism-based
# Conditions: in vivo, 768 h, time < 32 day
row,Compound,Activity
1,N[C@@H](CO)C(=O)NNCc1ccc(O)c(O)c1O.N[C@@H](Cc1ccc(O)c(O)c1)C(=O)O,Non-Toxic

# Test system: not listed separately
# Test: Toxicity in MPTP induced C57BL/6J mouse neurodegenerative model assessed as no change in heart weight treated with MPTP for 7 days followed by compound administration at 50 mg/kg, po measured upto 32 days
# Type: organism-based
# Conditions: in vivo, 768 h, time < 32 day
row,Compound,Activity
1,N[C@@H](CO)C(=O)NNCc1ccc(O)c(O)c1O.N[C@@H](Cc1ccc(O)c(O)c1)C(=O)O,Non-Toxic

# Target: T2, Indoleamine 2,3-dioxygenase 1
# Test: Inhibition of human IDO1 by Cornhish-Bowden method
# Conditions: not given
row,IC50 [µM],Compound
1,5.64,Oc1ccc(CNc2cc(Br)cc3[nH]ncc23)cc1
